ChEMBL document CHEMBL3885881, “DrugMatrix”

Species on record: Rattus norvegicus
Experiment: DrugMatrix - Regimen: Daily Repeat
Type: toxicity, organism-based, Sprague-Dawley
Set-up: regimen Daily Repeat, gender Male, age 6-8 weeks
Details: in vivo, po, route oral GAVAGE, […]; for ABSOLUTE BASOPHIL / BASOPHIL / NUCLEATED RED BLOOD CELLS / ABSOLUTE EOSINOPHIL / EOSINOPHIL / HEMOGLOBIN / ABSOLUTE LYMPHOCYTE / ABSOLUTE MONOCYTE / ABSOLUTE SEGMENTED NEUTROPHIL / ERYTHROCYTE COUNT / HEMATOCRIT / LEUKOCYTE COUNT / LYMPHOCYTE / MEAN CORPUSCULAR HEMOGLOBIN / MEAN CORPUSCULAR HEMOGLOBIN CONCENTRATION / MEAN CORPUSCULAR VOLUME / MONOCYTE / NEUTROPHIL / PLATELET COUNT: tissue Blood; for TOTAL BILIRUBIN / ALANINE AMINOTRANSFERASE / ALBUMIN / ALKALINE PHOSPHATASE / ASPARTATE AMINOTRANSFERASE / BLOOD UREA NITROGEN / CARBON DIOXIDE / CHLORIDE / CHOLESTEROL / CREATINE PHOSPHOKINASE / CREATININE / GLUCOSE / LACTATE DEHYDROGENASE / LIPASE / PHOSPHORUS / POTASSIUM / SODIUM / TOTAL PROTEIN / URIC ACID: tissue Plasma
[1] = 0 mg/kg, 72 h, dose level Control, time 3 day
[2] = 0 mg/kg, 120 h, dose level Control, time 5 day
[3] = 3 mg/kg, 72 h, dose level Low, time 3 day
[4] = 3 mg/kg, 120 h, dose level Low, time 5 day
[5] = 9 mg/kg, 72 h, dose level M1, time 3 day

## CS(=O)(=O)OCCCCOS(C)(=O)=O [BUSULFAN]
[1]
  ABSOLUTE BASOPHIL: 0 CELLS/uL
  BASOPHIL: 0%
  NUCLEATED RED BLOOD CELLS: 0 /100WBC
  TOTAL BILIRUBIN: 0.2 mg/dL
[2]
  ABSOLUTE BASOPHIL: 0 CELLS/uL
  ABSOLUTE EOSINOPHIL: 0 CELLS/uL
  BASOPHIL: 0%
  EOSINOPHIL: 0%
  HEMOGLOBIN: 13.5 G/DL
[3]
  ABSOLUTE BASOPHIL: 0 CELLS/uL
  ABSOLUTE EOSINOPHIL: 108.33 CELLS/uL
  ABSOLUTE LYMPHOCYTE: 8850.33 CELLS/uL
  ABSOLUTE MONOCYTE: 34.33 CELLS/uL
  ABSOLUTE SEGMENTED NEUTROPHIL: 773.67 CELLS/uL
  BASOPHIL: 0%
  EOSINOPHIL: 1%
  ERYTHROCYTE COUNT: 4.94 x10E6/uL
  HEMATOCRIT: 32%
  HEMOGLOBIN: 12.67 G/DL
  LEUKOCYTE COUNT: 9.77 x10E3/uL
  LYMPHOCYTE: 91%
  MEAN CORPUSCULAR HEMOGLOBIN: 25.67 pg
  MEAN CORPUSCULAR HEMOGLOBIN CONCENTRATION: 39.6 G/DL
  MEAN CORPUSCULAR VOLUME: 64.8 fL
  MONOCYTE: 0.33%
  NEUTROPHIL: 7.67%
  NUCLEATED RED BLOOD CELLS: 0 /100WBC
  PLATELET COUNT: 940.33 x10E3/uL
  ALANINE AMINOTRANSFERASE: 62.33 u/L
  ALBUMIN: 3.77 G/DL
  ALKALINE PHOSPHATASE: 286.67 u/L
  ASPARTATE AMINOTRANSFERASE: 86.67 u/L
  BLOOD UREA NITROGEN: 12.33 mg/dL
  CARBON DIOXIDE: 33.5 mmol/L
  CHLORIDE: 101 MEQ/L
  CHOLESTEROL: 62.33 mg/dL
  CREATINE PHOSPHOKINASE: 229.33 u/L
  CREATININE: 0.12 mg/dL
  GLUCOSE: 162.67 mg/dL
  LACTATE DEHYDROGENASE: 71.67 u/L
  LIPASE: 12 u/L
  PHOSPHORUS: 10 mg/dL
  POTASSIUM: 5.22 MEQ/L
  SODIUM: 144.35 MEQ/L
  TOTAL BILIRUBIN: 0.13 mg/dL
  TOTAL PROTEIN: 5.37 G/DL
  URIC ACID: 0.47 mg/dL
[4]
  ABSOLUTE BASOPHIL: 0 CELLS/uL
  ABSOLUTE EOSINOPHIL: 12.67 CELLS/uL
  ABSOLUTE LYMPHOCYTE: 5804 CELLS/uL
  ABSOLUTE MONOCYTE: 73.33 CELLS/uL
  ABSOLUTE SEGMENTED NEUTROPHIL: 310 CELLS/uL
  BASOPHIL: 0%
  EOSINOPHIL: 0.33%
  ERYTHROCYTE COUNT: 5.4 x10E6/uL
  HEMATOCRIT: 33.53%
  HEMOGLOBIN: 12.9 G/DL
  LEUKOCYTE COUNT: 6.2 x10E3/uL
  LYMPHOCYTE: 92.67%
  MEAN CORPUSCULAR HEMOGLOBIN: 23.9 pg
  MEAN CORPUSCULAR HEMOGLOBIN CONCENTRATION: 38.5 G/DL
  MEAN CORPUSCULAR VOLUME: 62.07 fL
  MONOCYTE: 1.33%
  NEUTROPHIL: 5.67%
  NUCLEATED RED BLOOD CELLS: 0 /100WBC
  PLATELET COUNT: 1068.67 x10E3/uL
  ALANINE AMINOTRANSFERASE: 47.67 u/L
  ALBUMIN: 4.13 G/DL
  ALKALINE PHOSPHATASE: 363 u/L
  ASPARTATE AMINOTRANSFERASE: 87 u/L
  BLOOD UREA NITROGEN: 12.33 mg/dL
  CARBON DIOXIDE: 28.67 mmol/L
  CHLORIDE: 100 MEQ/L
  CHOLESTEROL: 62 mg/dL
  CREATINE PHOSPHOKINASE: 290.67 u/L
  CREATININE: 0.16 mg/dL
  GLUCOSE: 165.67 mg/dL
  LACTATE DEHYDROGENASE: 77.67 u/L
  LIPASE: 13.33 u/L
  PHOSPHORUS: 9.3 mg/dL
  POTASSIUM: 5.76 MEQ/L
  SODIUM: 145.25 MEQ/L
  TOTAL BILIRUBIN: 0.17 mg/dL
  TOTAL PROTEIN: 6 G/DL
  URIC ACID: 0.53 mg/dL
[5]
  ABSOLUTE BASOPHIL: 0 CELLS/uL
  ABSOLUTE EOSINOPHIL: 0 CELLS/uL
  ABSOLUTE LYMPHOCYTE: 12304.67 CELLS/uL
  ABSOLUTE MONOCYTE: 88.33 CELLS/uL
  ABSOLUTE SEGMENTED NEUTROPHIL: 840.33 CELLS/uL
  BASOPHIL: 0%
  EOSINOPHIL: 0%
  ERYTHROCYTE COUNT: 5.46 x10E6/uL
  HEMATOCRIT: 33.63%
  HEMOGLOBIN: 13.23 G/DL
  LEUKOCYTE COUNT: 13.23 x10E3/uL
  LYMPHOCYTE: 92.67%
  MEAN CORPUSCULAR HEMOGLOBIN: 24.27 pg
  MEAN CORPUSCULAR HEMOGLOBIN CONCENTRATION: 39.37 G/DL
  MEAN CORPUSCULAR VOLUME: 61.57 fL
  MONOCYTE: 0.67%
  NEUTROPHIL: 6.67%
  NUCLEATED RED BLOOD CELLS: 0 /100WBC
  PLATELET COUNT: 1234.33 x10E3/uL
  ALANINE AMINOTRANSFERASE: 56.33 u/L
  ALBUMIN: 4.03 G/DL
  ALKALINE PHOSPHATASE: 362 u/L
  ASPARTATE AMINOTRANSFERASE: 76 u/L
  BLOOD UREA NITROGEN: 13 mg/dL
  CARBON DIOXIDE: 29.33 mmol/L
  CHLORIDE: 102.33 MEQ/L
  CHOLESTEROL: 77 mg/dL
  CREATINE PHOSPHOKINASE: 320.33 u/L
  CREATININE: 0.19 mg/dL
  GLUCOSE: 162.67 mg/dL
  LACTATE DEHYDROGENASE: 161.33 u/L
  LIPASE: 12 u/L
  PHOSPHORUS: 10.37 mg/dL
